Measurements: ChEMBL document CHEMBL1201862, “PubChem BioAssay data set” (2004)
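Tested at 5 concentrations; 48 h exposure; 96-well plates; endpoints linearly interpolated, else capped at highest concentration. GI50 = concentration required for 50% inhibition of growth.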 Active and inactive are the calls of the source. Cut-off read from the data, not from the text of the source: active = GI50 up to about 1.1 µM and inactive = higher.

Experiments:
Assay in all cases: inhibition of tumour cell growth, NCI panel, 48 h
[1] = tested on: DMS-273
[2] = tested on: DLD-1
[3] = tested on: M19-MEL
[4] = tested on: XF498
[5] = tested on: KM-20L2
[6] = tested on: DMS-114
[7] = tested on: SNB-78
[8] = tested on: HOP-18
[9] = tested on: RXF 631

SMILES | GI50 [1] | GI50 [2] | GI50 [3] | GI50 [4] | GI50 [5] | GI50 [6] | GI50 [7] | GI50 [8] | GI50 [9]
Cc1cc(N(CCOS(C)(=O)=O)CCOS(C)(=O)=O)ccc1/C=N/c1ccc(-c2nc(Cc3ccccc3)sc2C)cc1 | 1.87 µM (inactive) | 12.8 µM (inactive) | 10 µM (inactive) | 2.26 µM (inactive) | 7.19 µM (inactive) | 7.91 µM (inactive) | 32.9 µM (inactive) | 6.64 µM (inactive) | 
CC1OC(OC2C(OC(=O)[C@]34CCC(C)(C)CC3C3=CCC5[C@@]6(C)C[C@H](O)[C@H](OC7OC(CO)C(O)C(O)C7N)[C@@](C)(C(=O)O)C6CC[C@@]5(C)C3(C)CC4)OCC(O)C2O)C(O)C(O)C1OC1OCC(O)C(O)C1O (stereo partly drawn) | > 100 µM (inactive) | > 100 µM (inactive) | > 100 µM (inactive) |  | > 100 µM (inactive) | > 100 µM (inactive) | > 100 µM (inactive) | > 100 µM (inactive) | 
COc1cccc(NC(=O)C(C)(C)C)c1SSc1c(NC(=O)C(C)(C)C)cccc1OC | 96.8 µM (inactive) | > 43.7 µM (inactive) | 35.2 µM (inactive) | 15.2 µM (inactive) | 98.4 µM (inactive) | > 10 µM (inactive) | 22.3 µM (inactive) | > 69.7 µM (inactive) | 
CN(C)C(=O)Nc1c([N+](=O)[O-])cc(C(F)(F)F)cc1[N+](=O)[O-] | 43.8 µM (inactive) |  |  | 16.8 µM (inactive) | 26.5 µM (inactive) |  | 33.5 µM (inactive) |  | 
CC/C(CC(=O)CCC(=O)Nc1c(C)cccc1C)=N\NC(=O)NN |  | > 100 µM (inactive) | > 100 µM (inactive) |  | > 100 µM (inactive) |  | > 100 µM (inactive) | > 100 µM (inactive) | > 100 µM (inactive)
Nc1nc2ncn(CC(O)COC(=O)c3ccccc3)c2c(=O)[nH]1 (stereo not drawn) | > 100 µM (inactive) | > 100 µM (inactive) | > 100 µM (inactive) | > 100 µM (inactive) | > 100 µM (inactive) | > 100 µM (inactive) | 48.3 µM (inactive) | > 100 µM (inactive) | > 100 µM (inactive)
CCC1(Cl)C(=O)NC(=O)N(C2CC(O)C(CO)O2)C1N=[N+]=[N-] (stereo not drawn) | > 100 µM (inactive) | > 100 µM (inactive) | > 100 µM (inactive) | > 100 µM (inactive) | > 100 µM (inactive) | 80.4 µM (inactive) | > 100 µM (inactive) |  | > 100 µM (inactive)
CC(C)C(NCc1c2ccccc2[n+](C)c2ccccc12)C(=O)O (stereo not drawn) | 3.25 µM (inactive) | 2.39 µM (inactive) | 7.33 µM (inactive) | 4.99 µM (inactive) | 2.78 µM (inactive) | 2.28 µM (inactive) | 5.73 µM (inactive) | 5.78 µM (inactive) | 4.74 µM (inactive)
CCOC(=O)CN(Cc1ccccc1)Cc1c(C(=O)c2ccccc2)c2ccccc2n1C(=O)c1ccccc1 | > 100 µM (inactive) | > 100 µM (inactive) | > 100 µM (inactive) | 73.1 µM (inactive) | > 100 µM (inactive) | > 100 µM (inactive) | > 100 µM (inactive) |  | 
O=Cc1cc(O)c(O)c(O)c1-c1c(C=O)cc(O)c(O)c1O | > 100 µM (inactive) | > 100 µM (inactive) | > 100 µM (inactive) |  | > 100 µM (inactive) | 79.8 µM (inactive) | > 100 µM (inactive) | > 100 µM (inactive) | 
CNC(=O)OC1/C(C)=C\C(C)C(O)C(OC)CC(C)CC2=C(OC)C(=O)C=C(C2=O)N(C)C(=O)/C(C)=C/C=C\C1OC (stereo not drawn) | 3.31 µM (inactive) | 1.96 µM (inactive) | 5 µM (inactive) | 3.72 µM (inactive) | 2.53 µM (inactive) | 4.99 µM (inactive) | 7.21 µM (inactive) | 9.27 µM (inactive) | 15.1 µM (inactive)
Cc1ccc(C)c(N2C(=O)C(=O)C(c3nc4ccccc4o3)C(=O)C2=O)c1 | > 100 µM (inactive) | 22.9 µM (inactive) | 59.2 µM (inactive) |  | > 100 µM (inactive) | 44 µM (inactive) | > 100 µM (inactive) | > 100 µM (inactive) | > 100 µM (inactive)
CC(=O)OC1C(O)C(C)OC(OC2C(OC(=O)C3CCC4C(C3)OC3(CC(OC(=O)/C=C/c5ccccc5)C(C)CO3)C43CO3)OC(C)C(O)C2OC(C)=O)C1O (stereo not drawn) | 0.0259 µM (active) | 0.38 µM (active) | 0.0174 µM (active) | 0.0357 µM (active) | 0.041 µM (active) | 0.0251 µM (active) | 0.056 µM (active) | 0.0906 µM (active) | 
N#CC(N)(C(=O)C(=O)NCCCNC(=O)C(=O)C(N)(C#N)c1ccc(Cl)cc1)c1ccc(Cl)cc1 (stereo not drawn) | > 100 µM (inactive) | > 100 µM (inactive) | > 100 µM (inactive) | > 100 µM (inactive) | > 100 µM (inactive) | > 100 µM (inactive) | > 100 µM (inactive) | > 100 µM (inactive) | > 100 µM (inactive)
Cc1cccc(C2SCc3nc4ccccc4n32)c1 (stereo not drawn) |  | 25.2 µM (inactive) | 24 µM (inactive) |  |  | 10.9 µM (inactive) | 27.5 µM (inactive) | < 0.01 µM (active) | 
CS/C(c1ccccc1)=[N+](\[O-])Cc1ccccc1 |  | > 100 µM (inactive) | > 100 µM (inactive) | > 100 µM (inactive) | > 100 µM (inactive) | 45.9 µM (inactive) | > 100 µM (inactive) | > 100 µM (inactive) | 
COC(=O)CCC1CCc2c(OC)ccc(O)c2C1=O (stereo not drawn) | > 100 µM (inactive) | > 100 µM (inactive) | > 100 µM (inactive) |  |  |  | > 100 µM (inactive) |  | > 100 µM (inactive)
N#CC(C(=O)/C(=N/Nc1nc(S)nn1N)C(C#N)c1ccccc1)c1ccccc1 (stereo not drawn) | > 100 µM (inactive) | > 100 µM (inactive) | > 100 µM (inactive) | > 100 µM (inactive) | > 100 µM (inactive) | > 100 µM (inactive) | > 100 µM (inactive) | 0.403 µM (active) | > 100 µM (inactive)
O=NN(CCCl)C(=O)NCc1ccc[n+]([O-])c1 |  | > 100 µM (inactive) | > 100 µM (inactive) | > 100 µM (inactive) | > 100 µM (inactive) | > 100 µM (inactive) | > 100 µM (inactive) |  | > 100 µM (inactive)
CC1=CCC2(C#N)CCC1C2=O (stereo not drawn) |  | > 100 µM (inactive) | > 100 µM (inactive) | > 100 µM (inactive) | > 100 µM (inactive) | > 100 µM (inactive) | > 100 µM (inactive) |  | > 100 µM (inactive)
CC1=CC(=O)CCC2(C)C1CC[C@@H]2OC=O (stereo partly drawn) | > 100 µM (inactive) | > 100 µM (inactive) | > 100 µM (inactive) | > 100 µM (inactive) | 82.2 µM (inactive) | > 100 µM (inactive) | > 100 µM (inactive) | > 100 µM (inactive) | > 100 µM (inactive)
COc1ccc2c(c1)c(=O)c1c(NCCCN(C)C)ccc3ncn2c31 | 1.07 µM (active) | 1.14 µM (inactive) | 9.08 µM (inactive) | 5.35 µM (inactive) | 1.12 µM (inactive) | 10.6 µM (inactive) | 7.48 µM (inactive) | 11.2 µM (inactive) | 
COC(=O)c1cc2c3ccccc3n(C(C)=O)c2cn1 | > 100 µM (inactive) | > 100 µM (inactive) | > 100 µM (inactive) | 38.6 µM (inactive) | > 100 µM (inactive) | > 100 µM (inactive) | > 100 µM (inactive) | 44.9 µM (inactive) | 77.6 µM (inactive)
Cc1cn(C2CC3C(COCN3O)O2)c(=O)[nH]c1=O (stereo not drawn) | > 100 µM (inactive) |  | > 100 µM (inactive) | > 100 µM (inactive) | > 100 µM (inactive) | > 100 µM (inactive) |  |  | 
COc1ccc(-c2cc3ccccc3[nH]c2=O)cc1OC | > 100 µM (inactive) | > 100 µM (inactive) | > 100 µM (inactive) | > 100 µM (inactive) | > 100 µM (inactive) |  | > 100 µM (inactive) | > 100 µM (inactive) | 
COc1cccc2c1C(=O)OC2c1cccc2ccccc12 (stereo not drawn) | > 100 µM (inactive) | > 100 µM (inactive) | > 100 µM (inactive) | 34.8 µM (inactive) | > 100 µM (inactive) | > 100 µM (inactive) | > 100 µM (inactive) | > 85.5 µM (inactive) | 
